In patent publication EP0300397A2, “Hydroxy-, Alkoxy- and Benzyloxy substituted phospholipids, a process for their preparation and their use as medicaments” (HOECHST-ROUSSEL PHARMACEUTICALS INCORPORATED, priority 1987, dated 1989):
Structures can show the parent of a compound that is named as a salt.

Molecular target: T1, phospholipase A₂ isolated from rat perotoneum (Rattus norvegicus, UniProt P14423)
T1 construct: Enzyme-containing exudate was aspirated through an abdominal incision; Separation of the enzyme from the exudate was accomplished by centrifugation; from tissue; host or cells: peritoneal exudate of casein-injected male Wistar rats
T1 sequence (P14423 22-146): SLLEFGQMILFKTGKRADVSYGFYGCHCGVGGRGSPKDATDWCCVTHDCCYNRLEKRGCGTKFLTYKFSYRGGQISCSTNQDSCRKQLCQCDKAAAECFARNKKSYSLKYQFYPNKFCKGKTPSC
Assay: phospholipase A₂ inhibition, spectrophotometric assay with Thio Pc Substrate (modified Hendrickson et al. procedure)
Type: biochemical
Details: for IC50: concentration of inhibitor which reduces enzymatic activity by 50̸%, printed in the column % PLA₂ Inhibition; for inhibition at 100 µM: @ 1.0̸ x 10̸⁻⁴M, read-out: % PLA₂ Inhibition
Experimental: The substrate employed in the modified assay, was 1,2-bis(decanoylthio)-1,2-­dideoxyglycerol-3-phosphocholine (hereinafter "Thio Pc Substrate"). The enzyme utilized in the procedure was phospholipase A₂ isolated from rat perotoneum as follows:
Male Wistar rats weighing 200-300 g a piece were injected interperitoneally at a dosage of 50 ml/kg of body weight (20 g of casein as the sodium salt diluted to 500 ml in distilled water). After a period of 18-24 hours the animals were sacrificed. Thereafter, each animal was injected interperitoneally with 30 ml of an isotonic salt solution to which sodium heparin was added prior to use at a concentration of 5 units/ml. Enzyme-containing exudate was aspirated through an abdominal incision. Separation of the enzyme from the exudate was accomplished by centrifugation.
Pursuant to the assay procedure, Thio Pc Substrate was apportioned into 1.25 mg aliquots. To each aliquot was added 4 ml of 160 mM tris hydrogen chloride buffer (pH 7.5) containing 2mM of calcium chloride and 2mM of sodium taurocholate. The resulting dispersions were vortexed at room temperature to clear solutions. Inhibition activity of the alkylphospholipids of this invention was determined utilizing spectrophotometric samples prepared by the addition of 5 µl of 4,4′-dithiopyridine and 395 ml of buffered Thio Pc substrate to a perincubated dispersion of 50 µl of alkylphospholipid (appropriately diluted in buffer) in 50 µl of enzyme (appropriately diluted in buffer). Absorbence at (0.5 full scale ) was recorded at a chart speed of 2 cm/min on a Gilford Model 250 Spectrophotometer.
The percentage of phospholipase A₂ inhibition was calculated by means of the following formula: [formula] wherein "inhibitor slope" is the slope of the spectrophotometric curve obtained for a given alkylphospholipid-containing sample and 'control slope" is the slope of the spectrophotometric curve obtained for an otherwise identical sample lacking an inhibitor.

SMILES | IC50 | inhibition at 100 µM
CCN(CC)CCCC(C)Nc1c2ccc(Cl)cc2nc2ccc(OC)cc12 (centres unmarked) [Quinacrine, reference compound] | 31 µM | 
CCCCCCCCCCCCCCCC(O)CCCOP(=O)([O-])OCC[N+](C)(C)C (centres unmarked) [4,9-Dihydroxy-N,N,N-trimethyl-3,5-dioxa-4-phosphatetracosan-1-aminium, hydroxide, inner salt sesquihydrate] |  | 45.6%
CCCCCCCCCCCCCCCC(CCCOP(=O)([O-])OCC[N+](C)(C)C)OCc1ccccc1 (centres unmarked) [4-Hydroxy-N,N,N-trimethyl-9-phenylmethoxy-3,5-dioxa-4-phosphatetracosan-1-aminium, 4-oxide, hydroxide, inner salt monohydrate] |  | 41.8%
CCCCCCCCCCCCCCCCCC(CCCOP(=O)([O-])OCC[N+](C)(C)C)OCc1ccccc1 (centres unmarked) [4-Hydroxy-N,N,N-trimethyl-9-phenylmethoxy-3,5-dioxa-4-phosphahexacosan-1-aminium, 4-oxide, hydroxide, inner salt monohydrate] | 84 µM | 
CCCCCCCCCCCCCCCCC(O)CCCOP(=O)([O-])OCC[N+](C)(C)C (centres unmarked) [4,9-Dihydroxy-N,N,N-trimethyl-3,5-dioxa-4-phosphopentacosan-1-aminium, 4-oxide, hydroxide, inner salt monohydrate] | 95 µM | 
